Measurements from patent publication US20170190671A1, “BIS(ARYL)CATECHOL DERIVATIVES AS HERBICIDES” (E I DU PONT DE NEMOURS AND COMPANY, priority 2014, published 2017).

Tests used:
Assay in all cases: Test C postemergence
Assay type in all cases: in vivo
wild oat (Avena fatua) = conditions: Avena fatua, post-emergence, Postemergence, scale 0 to 100, read-out: Plant response rating, Oat, Wild
Outline: (§1)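 Seeds in loam-sand soil were treated preemergence, and plants at the 1- to 4-leaf stage (2-18 cm) in peat-based medium were sprayed postemergence, with test chemicals in a non-phytotoxic solvent containing surfactant. After 13-15 days in a greenhouse, response was rated visually against controls from 0 (no effect) to 100 (complete control).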

soybean (Glycine max) = conditions: Glycine max, post-emergence, Postemergence, scale 0 to 100, read-out: Plant response rating, Soybean
Outline: as §1

[1] = test system: lambsquarters (Chenopodium album); conditions: Chenopodium album, post-emergence, 336 h, Postemergence, scale 0 to 100, read-out: Plant response rating, Lambsquarters
Outline: as §1

[2] = test system: chickweed (common chickweed, Stellaria media); conditions: Stellaria media, post-emergence, Postemergence, scale 0 to 100, read-out: Plant response rating, Chickweed
Outline: as §1

corn (Zea mays) = conditions: Zea mays, post-emergence, 336 h, Postemergence, scale 0 to 100
Outline: as §1

[3] = test system: yellow nutsedge (Cyperus esculentus); conditions: Cyperus, post-emergence, 336 h, Postemergence, scale 0 to 100, read-out: Plant response rating, Nutsedge, Yellow
Outline: as §1

[4] = test system: oilseed rape (Brassica napus); conditions: Brassica napus, post-emergence, Postemergence, scale 0 to 100, read-out: Plant response rating, Oilseed Rape
Outline: as §1

[5] = test system: barnyardgrass (Echinochloa crus-galli); conditions: Echinochloa crus-galli, post-emergence, Postemergence, scale 0 to 100, read-out: Plant response rating, Barnyardgrass
Outline: as §1

[6] = test system: pigweed (Amaranthus retroflexus); conditions: Amaranthus retroflexus, post-emergence, 336 h, Postemergence, scale 0 to 100, read-out: Plant response rating, Pigweed
Outline: as §1

[7] = test system: johnsongrass (Sorghum halepense); conditions: Sorghum halepense, post-emergence, 336 h, Postemergence, scale 0 to 100, read-out: Plant response rating, Johnsongrass
Outline: as §1

[8] = test system: blackgrass (Alopecurus myosuroides); conditions: Alopecurus myosuroides, post-emergence, 336 h, Postemergence, scale 0 to 100, read-out: Plant response rating, Blackgrass
Outline: as §1

[9] = test system: waterhemp (common waterhemp, Amaranthus rudis); conditions: Amaranthus tuberculatus, post-emergence, Postemergence, scale 0 to 100, read-out: Plant response rating, Waterhemp
Outline: as §1

[10] = test system: ragweed (common ragweed, Ambrosia elatior); conditions: Ambrosia artemisiifolia, post-emergence, 336 h, Postemergence, scale 0 to 100, read-out: Plant response rating, Ragweed
Outline: as §1

[11] = test system: giant foxtail (Setaria faberii); conditions: Setaria faberi, post-emergence, 336 h, Postemergence, scale 0 to 100, read-out: Plant response rating, Foxtail, Giant
Outline: as §1

[12] = test system: Italian ryegrass (Lolium multiflorum); conditions: Lolium multiflorum, post-emergence, 336 h, Postemergence, scale 0 to 100, read-out: Plant response rating, Ryegrass, Italian
Outline: as §1

`FC(F)c1cccc(Oc2ncc(Cl)cn2)c1Oc1ncc(Cl)cn1` [Compound 46, 2,2′-[[3-(difluoromethyl)-1,2-phenylene]bis(oxy)]bis[5-chloropyrimidine]] gave a pest or weed control at 31 g/ha (wild oat (Avena fatua); 31 g ai/ha) of 5%, a pest or weed control at 62 g/ha (wild oat (Avena fatua); 62 g ai/ha) of 5% and a pest or weed control at 125 g/ha (wild oat (Avena fatua); 125 g ai/ha) of 10%. For the same compound, the plant injury at 31 g/ha (soybean (Glycine max); 31 g ai/ha) was 65%, the plant injury at 62 g/ha (soybean (Glycine max); 62 g ai/ha) was 75% and the plant injury at 125 g/ha (soybean (Glycine max); 125 g ai/ha) was 80%. It also gave a pest or weed control at 16 g/ha ([1]; 16 g ai/ha) of 55%, a pest or weed control at 31 g/ha ([1]; 31 g ai/ha) of 70% and a pest or weed control at 62 g/ha ([1]; 62 g ai/ha) of 85%. It also gave a pest or weed control at 125 g/ha ([1]; 125 g ai/ha) of 98%, a pest or weed control at 16 g/ha ([2]; 16 g ai/ha) of 35% and a pest or weed control at 31 g/ha ([2]; 31 g ai/ha) of 40%. The pest or weed control at 62 g/ha ([2]; 62 g ai/ha) was 60%, the pest or weed control at 125 g/ha ([2]; 125 g ai/ha) was 75% and the Corn plant response rating (crop injury, 0 = no effect, 100 = complete kill) at 16 g/ha (corn (Zea mays); 16 g ai/ha) was 5%. It also gave a Corn plant response rating (crop injury, 0 = no effect, 100 = complete kill) at 31 g/ha (corn (Zea mays); 31 g ai/ha) of 5%, a Corn plant response rating (crop injury, 0 = no effect, 100 = complete kill) at 62 g/ha (corn (Zea mays); 62 g ai/ha) of 5% and a Corn plant response rating (crop injury, 0 = no effect, 100 = complete kill) at 125 g/ha (corn (Zea mays); 125 g ai/ha) of 10%. The pest or weed control at 31 g/ha ([3]; 31 g ai/ha) was 0%, the pest or weed control at 62 g/ha ([3]; 62 g ai/ha) was 5% and the pest or weed control at 125 g/ha ([3]; 125 g ai/ha) was 5%. It also gave a plant injury at 31 g/ha ([4]; 31 g ai/ha) of 30%, a plant injury at 62 g/ha ([4]; 62 g ai/ha) of 50% and a plant injury at 125 g/ha ([4]; 125 g ai/ha) of 65%. It also gave a pest or weed control at 16 g/ha ([5]; 16 g ai/ha) of 0%, a pest or weed control at 31 g/ha ([5]; 31 g ai/ha) of 5% and a pest or weed control at 62 g/ha ([5]; 62 g ai/ha) of 5%. It also gave a pest or weed control at 125 g/ha ([5]; 125 g ai/ha) of 5%, a pest or weed control at 31 g/ha ([6]; 31 g ai/ha) of 70% and a pest or weed control at 62 g/ha ([6]; 62 g ai/ha) of 70%. For the same compound, the pest or weed control at 125 g/ha ([6]; 125 g ai/ha) was 85%, the pest or weed control at 16 g/ha ([7]; 16 g ai/ha) was 5% and the pest or weed control at 31 g/ha ([7]; 31 g ai/ha) was 10%. The pest or weed control at 62 g/ha ([7]; 62 g ai/ha) was 5%, the pest or weed control at 125 g/ha ([7]; 125 g ai/ha) was 5% and the pest or weed control at 16 g/ha ([8]; 16 g ai/ha) was 0%. The pest or weed control at 31 g/ha ([8]; 31 g ai/ha) was 0%, the pest or weed control at 62 g/ha ([8]; 62 g ai/ha) was 0% and the pest or weed control at 125 g/ha ([8]; 125 g ai/ha) was 5%. For the same compound, the pest or weed control at 31 g/ha ([9]; 31 g ai/ha) was 50%, the pest or weed control at 62 g/ha ([9]; 62 g ai/ha) was 70% and the pest or weed control at 125 g/ha ([9]; 125 g ai/ha) was 5%. It also gave a pest or weed control at 31 g/ha ([10]; 31 g ai/ha) of 50%, a pest or weed control at 62 g/ha ([10]; 62 g ai/ha) of 65% and a pest or weed control at 125 g/ha ([10]; 125 g ai/ha) of 95%. It also gave a pest or weed control at 16 g/ha ([11]; 16 g ai/ha) of 35%, a pest or weed control at 31 g/ha ([11]; 31 g ai/ha) of 20% and a pest or weed control at 62 g/ha ([11]; 62 g ai/ha) of 50%. The pest or weed control at 125 g/ha ([11]; 125 g ai/ha) was 25%, the pest or weed control at 31 g/ha ([12]; 31 g ai/ha) was 5% and the pest or weed control at 62 g/ha ([12]; 62 g ai/ha) was 5%. The pest or weed control at 125 g/ha ([12]; 125 g ai/ha) was 10%.
